Reference: ChEMBL document CHEMBL3046635, “Synthesis and Herbicidal Activity of New Pyrazole-4-carboxamide Derivatives” (J Pestic Sci, 2004)
Activity calls are given as the source filed them.

These molecules were tested on Oryza sativa (assay: Phytotoxicity against Oryza sativa cv. Koshihikari (rice) at 500 g a.i/ha measured after 14 days). Settings: in vivo, 336 h.
Format: organism-based
CCONC(=O)c1cn(C(F)F)nc1OCc1cccc(C(F)(F)F)c1 was tested, and the Activity was “Non-toxic”. CCONC(=O)c1cn(C(C)(C)C)nc1OCc1cccc(C(F)(F)F)c1 was tested, and the Activity was “Non-toxic”.

Each molecule was assayed on Elatine triandra (assay: Post-emergence herbicidal activity against Elatine triandra assessed as bleaching of stem/leaf parts). Settings: not given.
Format: functional, organism-based
In the case of CCONC(=O)c1cn(C(F)F)nc1OCc1cccc(C(F)(F)F)c1, the Activity is reported as “Active”. In the case of CCONC(=O)c1cn(C(C)(C)C)nc1OCc1cccc(C(F)(F)F)c1, the Activity is reported as “Active”.

Each molecule was assayed on Echinochloa oryzicola (assay: Pre-emergence herbicidal activity against Echinochloa oryzicola at 500 g a.i/ha measured after 14 days). Settings: not given.
Format: functional, organism-based
For CCONC(=O)c1cn(C(F)F)nc1OCc1cccc(C(F)(F)F)c1, the Activity was “Active”. In the case of CCONC(=O)c1cn(C(C)(C)C)nc1OCc1cccc(C(F)(F)F)c1, the Activity is reported as “inactive”.

The molecules below were run on Pontederia vaginalis (assay: Pre-emergence herbicidal activity against Monochoria vaginalis at 500 g a.i/ha measured after 14 days). Settings: not given.
Format: functional, organism-based
In the case of CCONC(=O)c1cn(C(F)F)nc1OCc1cccc(C(F)(F)F)c1, the Activity is reported as “Active”. In the case of CCONC(=O)c1cn(C(C)(C)C)nc1OCc1cccc(C(F)(F)F)c1, the Activity is reported as “inactive”.

Each molecule was assayed on Ammannia multiflora (assay: Pre-emergence herbicidal activity against Ammannia multiflora at 500 g a.i/ha measured after 14 days). Settings: not given.
Format: functional, organism-based
In the case of CCONC(=O)c1cn(C(F)F)nc1OCc1cccc(C(F)(F)F)c1, the Activity is reported as “Active”. With CCONC(=O)c1cn(C(C)(C)C)nc1OCc1cccc(C(F)(F)F)c1 the Activity was “inactive”.

The molecules below were run on Eleocharis acicularis (assay: Post-emergence herbicidal activity against Eleocharis acicularis assessed as bleaching of stem/leaf parts). Settings: not given.
Format: functional, organism-based
CCONC(=O)c1cn(C(F)F)nc1OCc1cccc(C(F)(F)F)c1 was tested, and the Activity was “Active”. For CCONC(=O)c1cn(C(C)(C)C)nc1OCc1cccc(C(F)(F)F)c1, the Activity was “Active”.

The molecules below were run on Echinochloa oryzicola (assay: Pre-emergence herbicidal activity against Echinochloa oryzicola assessed as bleaching of stem/leaf parts). Settings: not given.
Format: functional, organism-based
In the case of CCONC(=O)c1cn(C(F)F)nc1OCc1cccc(C(F)(F)F)c1, the Activity is reported as “Active”. With CCONC(=O)c1cn(C(C)(C)C)nc1OCc1cccc(C(F)(F)F)c1 the Activity was “Active”.

These molecules were tested on Cyperus difformis (assay: Pre-emergence herbicidal activity against Cyperus difformis at 500 g a.i/ha measured after 14 days). Settings: not given.
Format: functional, organism-based
CCONC(=O)c1cn(C(F)F)nc1OCc1cccc(C(F)(F)F)c1 was tested, and the Activity was “Active”. With CCONC(=O)c1cn(C(C)(C)C)nc1OCc1cccc(C(F)(F)F)c1 the Activity was “inactive”.

These molecules were tested on Rotala indica (assay: Post-emergence herbicidal activity against Rotala indica assessed as bleaching of stem/leaf parts). Settings: not given.
Format: functional, organism-based
For CCONC(=O)c1cn(C(F)F)nc1OCc1cccc(C(F)(F)F)c1, the Activity was “Active”. CCONC(=O)c1cn(C(C)(C)C)nc1OCc1cccc(C(F)(F)F)c1 was tested, and the Activity was “Active”.

What follows are molecules tested on Echinochloa oryzicola (assay: Pre-emergence herbicidal activity against Echinochloa oryzicola at 100 g a.i/ha measured after 14 days). Settings: not given.
Format: functional, organism-based
For CCONC(=O)c1cn(C(F)F)nc1OCc1cccc(C(F)(F)F)c1, the Activity was “inactive”.

Each molecule was assayed on Schoenoplectiella juncoides (assay: Pre-emergence herbicidal activity against Schoenoplectiella juncoides at 500 g a.i/ha measured after 14 days). Settings: not given.
Format: functional, organism-based
With CCONC(=O)c1cn(C(F)F)nc1OCc1cccc(C(F)(F)F)c1 the Activity was “Active”. CCONC(=O)c1cn(C(C)(C)C)nc1OCc1cccc(C(F)(F)F)c1 was tested, and the Activity was “inactive”.

What follows are molecules tested on Elatine triandra (assay: Pre-emergence herbicidal activity against Elatine triandra at 500 g a.i/ha measured after 14 days). Settings: not given.
Format: functional, organism-based
In the case of CCONC(=O)c1cn(C(F)F)nc1OCc1cccc(C(F)(F)F)c1, the Activity is reported as “Active”. In the case of CCONC(=O)c1cn(C(C)(C)C)nc1OCc1cccc(C(F)(F)F)c1, the Activity is reported as “inactive”.

The molecules below were run on Echinochloa oryzicola (assay: Post-emergence herbicidal activity against Echinochloa oryzicola assessed as bleaching of stem/leaf parts). Settings: not given.
Format: functional, organism-based
In the case of CCONC(=O)c1cn(C(F)F)nc1OCc1cccc(C(F)(F)F)c1, the Activity is reported as “Active”. With CCONC(=O)c1cn(C(C)(C)C)nc1OCc1cccc(C(F)(F)F)c1 the Activity was “Active”.

The molecules below were run on Cyperus difformis (assay: Pre-emergence herbicidal activity against Cyperus difformis assessed as bleaching of stem/leaf parts). Settings: not given.
Format: functional, organism-based
CCONC(=O)c1cn(C(F)F)nc1OCc1cccc(C(F)(F)F)c1 was tested, and the Activity was “Active”. CCONC(=O)c1cn(C(C)(C)C)nc1OCc1cccc(C(F)(F)F)c1 was tested, and the Activity was “Active”.

Each molecule was assayed on Elatine triandra (assay: Pre-emergence herbicidal activity against Elatine triandra at 100 g a.i/ha measured after 14 days). Settings: not given.
Format: functional, organism-based
With CCONC(=O)c1cn(C(F)F)nc1OCc1cccc(C(F)(F)F)c1 the Activity was “Active”.

The molecules below were run on Schoenoplectiella juncoides (assay: Pre-emergence herbicidal activity against Schoenoplectiella juncoides at 100 g a.i/ha measured after 14 days). Settings: not given.
Format: functional, organism-based
With CCONC(=O)c1cn(C(F)F)nc1OCc1cccc(C(F)(F)F)c1 the Activity was “Active”.

The molecules below were run on Schoenoplectiella juncoides (assay: Pre-emergence herbicidal activity against Schoenoplectiella juncoides assessed as bleaching of stem/leaf parts). Settings: not given.
Format: functional, organism-based
With CCONC(=O)c1cn(C(F)F)nc1OCc1cccc(C(F)(F)F)c1 the Activity was “Active”. With CCONC(=O)c1cn(C(C)(C)C)nc1OCc1cccc(C(F)(F)F)c1 the Activity was “Active”.

The molecules below were run on Rotala indica (assay: Pre-emergence herbicidal activity against Rotala indica assessed as bleaching of stem/leaf parts). Settings: not given.
Format: functional, organism-based
With CCONC(=O)c1cn(C(F)F)nc1OCc1cccc(C(F)(F)F)c1 the Activity was “Active”. CCONC(=O)c1cn(C(C)(C)C)nc1OCc1cccc(C(F)(F)F)c1 was tested, and the Activity was “Active”.

The molecules below were run on Lindernia procumbens (assay: Pre-emergence herbicidal activity against Lindernia procumbens at 500 g a.i/ha measured after 14 days). Settings: not given.
Format: functional, organism-based
For CCONC(=O)c1cn(C(F)F)nc1OCc1cccc(C(F)(F)F)c1, the Activity was “Active”. With CCONC(=O)c1cn(C(C)(C)C)nc1OCc1cccc(C(F)(F)F)c1 the Activity was “inactive”.

These molecules were tested on Eleocharis acicularis (assay: Pre-emergence herbicidal activity against Eleocharis acicularis assessed as bleaching of stem/leaf parts). Settings: not given.
Format: functional, organism-based
With CCONC(=O)c1cn(C(F)F)nc1OCc1cccc(C(F)(F)F)c1 the Activity was “Active”. CCONC(=O)c1cn(C(C)(C)C)nc1OCc1cccc(C(F)(F)F)c1 was tested, and the Activity was “Active”.

Each molecule was assayed on Eleocharis acicularis (assay: Pre-emergence herbicidal activity against Eleocharis acicularis at 500 g a.i/ha measured after 14 days). Settings: not given.
Format: functional, organism-based
With CCONC(=O)c1cn(C(C)(C)C)nc1OCc1cccc(C(F)(F)F)c1 the Activity was “inactive”.

What follows are molecules tested on Pontederia vaginalis (assay: Pre-emergence herbicidal activity against Monochoria vaginalis at 100 g a.i/ha measured after 14 days). Settings: not given.
Format: functional, organism-based
CCONC(=O)c1cn(C(F)F)nc1OCc1cccc(C(F)(F)F)c1 was tested, and the Activity was “Active”.

The molecules below were run on Lindernia procumbens (assay: Pre-emergence herbicidal activity against Lindernia procumbens assessed as bleaching of stem/leaf parts). Settings: not given.
Format: functional, organism-based
For CCONC(=O)c1cn(C(F)F)nc1OCc1cccc(C(F)(F)F)c1, the Activity was “Active”. CCONC(=O)c1cn(C(C)(C)C)nc1OCc1cccc(C(F)(F)F)c1 was tested, and the Activity was “Active”.

The molecules below were run on Schoenoplectiella juncoides (assay: Post-emergence herbicidal activity against Schoenoplectiella juncoides assessed as bleaching of stem/leaf parts). Settings: not given.
Format: functional, organism-based
CCONC(=O)c1cn(C(F)F)nc1OCc1cccc(C(F)(F)F)c1 was tested, and the Activity was “Active”. In the case of CCONC(=O)c1cn(C(C)(C)C)nc1OCc1cccc(C(F)(F)F)c1, the Activity is reported as “Active”.

Each molecule was assayed on Oryza sativa (assay: Phytotoxicity against Oryza sativa cv. Koshihikari (rice) at 100 g a.i/ha measured after 14 days). Settings: in vivo, 336 h.
Format: organism-based
With CCONC(=O)c1cn(C(F)F)nc1OCc1cccc(C(F)(F)F)c1 the Activity was “Non-toxic”.

These molecules were tested on Rotala indica (assay: Pre-emergence herbicidal activity against Rotala indica at 100 g a.i/ha measured after 14 days). Settings: not given.
Format: functional, organism-based
In the case of CCONC(=O)c1cn(C(F)F)nc1OCc1cccc(C(F)(F)F)c1, the Activity is reported as “Active”.

These molecules were tested on Ammannia multiflora (assay: Pre-emergence herbicidal activity against Ammannia multiflora at 100 g a.i/ha measured after 14 days). Settings: not given.
Format: functional, organism-based
With CCONC(=O)c1cn(C(F)F)nc1OCc1cccc(C(F)(F)F)c1 the Activity was “Active”.

The molecules below were run on Ammannia multiflora (assay: Post-emergence herbicidal activity against Ammannia multiflora assessed as bleaching of stem/leaf parts). Settings: not given.
Format: functional, organism-based
With CCONC(=O)c1cn(C(F)F)nc1OCc1cccc(C(F)(F)F)c1 the Activity was “Active”. In the case of CCONC(=O)c1cn(C(C)(C)C)nc1OCc1cccc(C(F)(F)F)c1, the Activity is reported as “Active”.

Each molecule was assayed on Lindernia procumbens (assay: Post-emergence herbicidal activity against Lindernia procumbens assessed as bleaching of stem/leaf parts). Settings: not given.
Format: functional, organism-based
In the case of CCONC(=O)c1cn(C(F)F)nc1OCc1cccc(C(F)(F)F)c1, the Activity is reported as “Active”. With CCONC(=O)c1cn(C(C)(C)C)nc1OCc1cccc(C(F)(F)F)c1 the Activity was “Active”.

These molecules were tested on Rotala indica (assay: Pre-emergence herbicidal activity against Rotala indica at 500 g a.i/ha measured after 14 days). Settings: not given.
Format: functional, organism-based
With CCONC(=O)c1cn(C(F)F)nc1OCc1cccc(C(F)(F)F)c1 the Activity was “Active”. In the case of CCONC(=O)c1cn(C(C)(C)C)nc1OCc1cccc(C(F)(F)F)c1, the Activity is reported as “inactive”.

These molecules were tested on Cyperus difformis (assay: Post-emergence herbicidal activity against Cyperus difformis assessed as bleaching of stem/leaf parts). Settings: not given.
Format: functional, organism-based
In the case of CCONC(=O)c1cn(C(F)F)nc1OCc1cccc(C(F)(F)F)c1, the Activity is reported as “Active”. In the case of CCONC(=O)c1cn(C(C)(C)C)nc1OCc1cccc(C(F)(F)F)c1, the Activity is reported as “Active”.

The molecules below were run on Cyperus difformis (assay: Pre-emergence herbicidal activity against Cyperus difformis at 100 g a.i/ha measured after 14 days). Settings: not given.
Format: functional, organism-based
In the case of CCONC(=O)c1cn(C(F)F)nc1OCc1cccc(C(F)(F)F)c1, the Activity is reported as “Active”.

These molecules were tested on Ammannia multiflora (assay: Pre-emergence herbicidal activity against Ammannia multiflora assessed as bleaching of stem/leaf parts). Settings: not given.
Format: functional, organism-based
For CCONC(=O)c1cn(C(F)F)nc1OCc1cccc(C(F)(F)F)c1, the Activity was “Active”. In the case of CCONC(=O)c1cn(C(C)(C)C)nc1OCc1cccc(C(F)(F)F)c1, the Activity is reported as “Active”.

Each molecule was assayed on Pontederia vaginalis (assay: Post-emergence herbicidal activity against Monochoria vaginalis assessed as bleaching of stem/leaf parts). Settings: not given.
Format: functional, organism-based
With CCONC(=O)c1cn(C(F)F)nc1OCc1cccc(C(F)(F)F)c1 the Activity was “Active”. In the case of CCONC(=O)c1cn(C(C)(C)C)nc1OCc1cccc(C(F)(F)F)c1, the Activity is reported as “Active”.

These molecules were tested on Elatine triandra (assay: Pre-emergence herbicidal activity against Elatine triandra assessed as bleaching of stem/leaf parts). Settings: not given.
Format: functional, organism-based
CCONC(=O)c1cn(C(F)F)nc1OCc1cccc(C(F)(F)F)c1 was tested, and the Activity was “Active”. In the case of CCONC(=O)c1cn(C(C)(C)C)nc1OCc1cccc(C(F)(F)F)c1, the Activity is reported as “Active”.

Each molecule was assayed on Lindernia procumbens (assay: Pre-emergence herbicidal activity against Lindernia procumbens at 100 g a.i/ha measured after 14 days). Settings: not given.
Format: functional, organism-based
For CCONC(=O)c1cn(C(F)F)nc1OCc1cccc(C(F)(F)F)c1, the Activity was “Active”.

Each molecule was assayed on Pontederia vaginalis (assay: Pre-emergence herbicidal activity against Monochoria vaginalis assessed as bleaching of stem/leaf parts). Settings: not given.
Format: functional, organism-based
CCONC(=O)c1cn(C(F)F)nc1OCc1cccc(C(F)(F)F)c1 was tested, and the Activity was “Active”. With CCONC(=O)c1cn(C(C)(C)C)nc1OCc1cccc(C(F)(F)F)c1 the Activity was “Active”.
